Source: the NIST ThermoML archive (doi:10.1016/j.jct.2016.01.017)
Numbers after ± are expanded uncertainties.

Assay: activity coefficient (dimensionless); of the first substance listed, at infinite dilution; xn = mol fraction of the nth substance listed
Settings: 100 kPa, Liquid, Chromatography, x1 = 0

Structure (SMILES)	activity coefficient (308.15 K)	activity coefficient (318.15 K)	activity coefficient (328.15 K)	activity coefficient (338.15 K)	activity coefficient (348.15 K)	activity coefficient (358.15 K)	activity coefficient (368.15 K)
C1CCCCCC1 [cycloheptane] + CCCC[n+]1ccc(C#N)cc1.O=S(=O)([N-]S(=O)(=O)C(F)(F)F)C(F)(F)F	22.3 ± 1.9	20.6 ± 1.8	19.1 ± 1.7	17.8 ± 1.5	16.7 ± 1.4	15.6 ± 1.3	14.8 ± 1.3
CCCCCCCCCC [decane] + CCCC[n+]1ccc(C#N)cc1.O=S(=O)([N-]S(=O)(=O)C(F)(F)F)C(F)(F)F	124 ± 11	115 ± 10	107 ± 9	99.8 ± 8.6	93.8 ± 8.1	88.2 ± 7.6	83.6 ± 7.2
CCCCCC [hexane] + CCCC[n+]1ccc(C#N)cc1.O=S(=O)([N-]S(=O)(=O)C(F)(F)F)C(F)(F)F	33 ± 2.9	30.7 ± 2.7	28.8 ± 2.5	27.1 ± 2.3	25.6 ± 2.2	24.2 ± 2.1	23.1 ± 2
c1ccncc1 [pyridine] + CCCC[n+]1ccc(C#N)cc1.O=S(=O)([N-]S(=O)(=O)C(F)(F)F)C(F)(F)F	0.47 ± 0.044	0.5 ± 0.046	0.53 ± 0.048	0.56 ± 0.05	0.591 ± 0.052	0.62 ± 0.054	0.65 ± 0.056
C=CCCCCC [1-heptene] + CCCC[n+]1ccc(C#N)cc1.O=S(=O)([N-]S(=O)(=O)C(F)(F)F)C(F)(F)F	21.3 ± 1.8	20.7 ± 1.8	20 ± 1.7	19.5 ± 1.7	19 ± 1.6	18.5 ± 1.6	18.1 ± 1.6
CCc1ccccc1 [ethylbenzene] + CCCC[n+]1ccc(C#N)cc1.O=S(=O)([N-]S(=O)(=O)C(F)(F)F)C(F)(F)F	2.49 ± 0.21	2.58 ± 0.22	2.67 ± 0.23	2.77 ± 0.24	2.85 ± 0.25	2.93 ± 0.25	3.03 ± 0.26
C#CCCCCCC [1-octyne] + CCCC[n+]1ccc(C#N)cc1.O=S(=O)([N-]S(=O)(=O)C(F)(F)F)C(F)(F)F	10.1 ± 0.9	10.2 ± 0.9	10.3 ± 0.9	10.3 ± 0.9	10.4 ± 0.9	10.4 ± 0.9	10.5 ± 0.9
C1COCCO1 [1,4-dioxane] + CCCC[n+]1ccc(C#N)cc1.O=S(=O)([N-]S(=O)(=O)C(F)(F)F)C(F)(F)F	0.419 ± 0.041	0.461 ± 0.044	0.502 ± 0.046	0.544 ± 0.049	0.587 ± 0.052	0.631 ± 0.055	0.676 ± 0.058
Cc1ccc(C)cc1 [1,4-dimethylbenzene] + CCCC[n+]1ccc(C#N)cc1.O=S(=O)([N-]S(=O)(=O)C(F)(F)F)C(F)(F)F	2.15 ± 0.19	2.28 ± 0.2	2.4 ± 0.21	2.52 ± 0.22	2.65 ± 0.23	2.77 ± 0.24	2.89 ± 0.25
CCOC(C)(C)C [2-ethoxy-2-methylpropane] + CCCC[n+]1ccc(C#N)cc1.O=S(=O)([N-]S(=O)(=O)C(F)(F)F)C(F)(F)F	8.97 ± 0.77	8.89 ± 0.77	8.84 ± 0.76	8.8 ± 0.76	8.78 ± 0.76	8.73 ± 0.75	8.68 ± 0.75
CCCCO [butan-1-ol] + CCCC[n+]1ccc(C#N)cc1.O=S(=O)([N-]S(=O)(=O)C(F)(F)F)C(F)(F)F	3.19 ± 0.28	2.94 ± 0.25	2.74 ± 0.24	2.56 ± 0.22	2.41 ± 0.21	2.28 ± 0.2	2.15 ± 0.19
CCC(=O)CC [pentan-3-one] + CCCC[n+]1ccc(C#N)cc1.O=S(=O)([N-]S(=O)(=O)C(F)(F)F)C(F)(F)F	0.697 ± 0.06	0.746 ± 0.063	0.792 ± 0.066	0.84 ± 0.07	0.889 ± 0.074	0.936 ± 0.077	0.984 ± 0.081
CC#N [acetonitrile] + CCCC[n+]1ccc(C#N)cc1.O=S(=O)([N-]S(=O)(=O)C(F)(F)F)C(F)(F)F	0.432 ± 0.042	0.449 ± 0.043	0.466 ± 0.044	0.483 ± 0.045	0.5 ± 0.046	0.516 ± 0.047	0.531 ± 0.048
CCCCC [pentane] + CCCC[n+]1ccc(C#N)cc1.O=S(=O)([N-]S(=O)(=O)C(F)(F)F)C(F)(F)F	26.7 ± 2.3	24.2 ± 2.1	22 ± 1.9	20.2 ± 1.7	18.6 ± 1.6	17.2 ± 1.5	16 ± 1.4
